Laboratory results published in ChEMBL document CHEMBL3045422, “Synthesis, characterization, and antimicrobial screening of some Mannich base sydnone derivatives” (2013).
Values after ≈ are worked out from the molar mass of the structure shown.

System: Staphylococcus aureus
Assay: microbe, parasite or virus in culture
Format: functional
Settings: read-out: IZ
Description: Antibacterial activity against Staphylococcus aureus at 300 ug/ml

SMILES	zone of inhibition at 300 µg/mL [mm]
COc1ccc(-[n+]2noc([O-])c2CNc2nc3ccc(F)cc3s2)cc1	12
COc1ccc(-[n+]2noc([O-])c2Cn2c(-c3ccc(Cl)cc3Cl)nc3ccccc32)cc1	10
COc1ccc(NCc2c([O-])on[n+]2-c2ccc(OC)cc2)cc1	16
COc1ccc(-[n+]2noc([O-])c2Cn2cnc3ccccc32)cc1	11
COc1ccc(-[n+]2noc([O-])c2Cn2c(-c3ccc(Cl)cc3)nc3ccccc32)cc1	12
CCOc1ccc(NCc2c([O-])on[n+]2-c2ccc(OC)cc2)cc1	17
COc1ccc(-[n+]2noc([O-])c2CNc2nc3ccc(OC)cc3s2)cc1	14
COc1ccc(-[n+]2noc([O-])c2CNc2nc3ccc(C)cc3s2)cc1	15
COc1ccc(-[n+]2noc([O-])c2CNc2nc3ccc(C#N)cc3s2)cc1	16
COc1ccc(-[n+]2noc([O-])c2CNc2ccc(Cl)cc2)cc1	12

System: Bacillus subtilis
Assay: microbe, parasite or virus in culture
Format: functional
Settings: not given

SMILES	MIC [µg/mL]
COc1ccc(-[n+]2noc([O-])c2CNc2nc3ccc(F)cc3s2)cc1	200 (≈ 537 µM)
COc1ccc(-[n+]2noc([O-])c2Cn2c(-c3ccc(Cl)cc3Cl)nc3ccccc32)cc1	500 (≈ 1070 µM)
COc1ccc(NCc2c([O-])on[n+]2-c2ccc(OC)cc2)cc1	100 (≈ 305 µM)
COc1ccc(-[n+]2noc([O-])c2Cn2cnc3ccccc32)cc1	300 (≈ 931 µM)
COc1ccc(-[n+]2noc([O-])c2Cn2c(-c3ccc(Cl)cc3)nc3ccccc32)cc1	300 (≈ 693 µM)
CCOc1ccc(NCc2c([O-])on[n+]2-c2ccc(OC)cc2)cc1	80 (≈ 234 µM)
COc1ccc(-[n+]2noc([O-])c2CNc2nc3ccc(OC)cc3s2)cc1	200 (≈ 520 µM)
COc1ccc(-[n+]2noc([O-])c2CNc2nc3ccc(C)cc3s2)cc1	60 (≈ 163 µM)
COc1ccc(-[n+]2noc([O-])c2CNc2nc3ccc(C#N)cc3s2)cc1	60 (≈ 158 µM)
COc1ccc(-[n+]2noc([O-])c2CNc2ccc(Cl)cc2)cc1	200 (≈ 603 µM)

System: Escherichia coli
Assay: microbe, parasite or virus in culture
Format: functional
Settings: read-out: IZ
Description: Antibacterial activity against Escherichia coli at 300 ug/ml

SMILES	zone of inhibition at 300 µg/mL [mm]
COc1ccc(-[n+]2noc([O-])c2CNc2nc3ccc(F)cc3s2)cc1	12
COc1ccc(-[n+]2noc([O-])c2Cn2c(-c3ccc(Cl)cc3Cl)nc3ccccc32)cc1	12
COc1ccc(NCc2c([O-])on[n+]2-c2ccc(OC)cc2)cc1	12
COc1ccc(-[n+]2noc([O-])c2Cn2cnc3ccccc32)cc1	10
COc1ccc(-[n+]2noc([O-])c2Cn2c(-c3ccc(Cl)cc3)nc3ccccc32)cc1	15
CCOc1ccc(NCc2c([O-])on[n+]2-c2ccc(OC)cc2)cc1	13
COc1ccc(-[n+]2noc([O-])c2CNc2nc3ccc(OC)cc3s2)cc1	13
COc1ccc(-[n+]2noc([O-])c2CNc2nc3ccc(C)cc3s2)cc1	12
COc1ccc(-[n+]2noc([O-])c2CNc2nc3ccc(C#N)cc3s2)cc1	12
COc1ccc(-[n+]2noc([O-])c2CNc2ccc(Cl)cc2)cc1	13

System: Bacillus subtilis
Assay: microbe, parasite or virus in culture
Format: functional
Settings: read-out: IZ
Description: Antibacterial activity against Bacillus subtilis at 300 ug/ml

SMILES	zone of inhibition at 300 µg/mL [mm]
COc1ccc(-[n+]2noc([O-])c2CNc2nc3ccc(F)cc3s2)cc1	12
COc1ccc(-[n+]2noc([O-])c2Cn2c(-c3ccc(Cl)cc3Cl)nc3ccccc32)cc1	10
COc1ccc(NCc2c([O-])on[n+]2-c2ccc(OC)cc2)cc1	18
COc1ccc(-[n+]2noc([O-])c2Cn2cnc3ccccc32)cc1	11
COc1ccc(-[n+]2noc([O-])c2Cn2c(-c3ccc(Cl)cc3)nc3ccccc32)cc1	12
CCOc1ccc(NCc2c([O-])on[n+]2-c2ccc(OC)cc2)cc1	16
COc1ccc(-[n+]2noc([O-])c2CNc2nc3ccc(OC)cc3s2)cc1	12
COc1ccc(-[n+]2noc([O-])c2CNc2nc3ccc(C)cc3s2)cc1	18
COc1ccc(-[n+]2noc([O-])c2CNc2nc3ccc(C#N)cc3s2)cc1	17
COc1ccc(-[n+]2noc([O-])c2CNc2ccc(Cl)cc2)cc1	13

System: Candida albicans
Assay: Antifungal activity against Candida albicans at 300 ug/ml
Format: functional
Settings: read-out: IZ

SMILES	zone of inhibition at 300 µg/mL [mm]
COc1ccc(-[n+]2noc([O-])c2CNc2nc3ccc(F)cc3s2)cc1	13
COc1ccc(-[n+]2noc([O-])c2Cn2c(-c3ccc(Cl)cc3Cl)nc3ccccc32)cc1	16
COc1ccc(NCc2c([O-])on[n+]2-c2ccc(OC)cc2)cc1	20
COc1ccc(-[n+]2noc([O-])c2Cn2cnc3ccccc32)cc1	12
COc1ccc(-[n+]2noc([O-])c2Cn2c(-c3ccc(Cl)cc3)nc3ccccc32)cc1	14
CCOc1ccc(NCc2c([O-])on[n+]2-c2ccc(OC)cc2)cc1	16
COc1ccc(-[n+]2noc([O-])c2CNc2nc3ccc(OC)cc3s2)cc1	15
COc1ccc(-[n+]2noc([O-])c2CNc2nc3ccc(C)cc3s2)cc1	17
COc1ccc(-[n+]2noc([O-])c2CNc2nc3ccc(C#N)cc3s2)cc1	17
COc1ccc(-[n+]2noc([O-])c2CNc2ccc(Cl)cc2)cc1	18

System: Candida albicans
Assay: microbe, parasite or virus in culture
Format: functional
Settings: not given

SMILES	MIC [µg/mL]
COc1ccc(-[n+]2noc([O-])c2CNc2nc3ccc(F)cc3s2)cc1	200 (≈ 537 µM)
COc1ccc(-[n+]2noc([O-])c2Cn2c(-c3ccc(Cl)cc3Cl)nc3ccccc32)cc1	200 (≈ 428 µM)
COc1ccc(NCc2c([O-])on[n+]2-c2ccc(OC)cc2)cc1	200 (≈ 611 µM)
COc1ccc(-[n+]2noc([O-])c2Cn2cnc3ccccc32)cc1	300 (≈ 931 µM)
COc1ccc(-[n+]2noc([O-])c2Cn2c(-c3ccc(Cl)cc3)nc3ccccc32)cc1	200 (≈ 462 µM)
CCOc1ccc(NCc2c([O-])on[n+]2-c2ccc(OC)cc2)cc1	200 (≈ 586 µM)
COc1ccc(-[n+]2noc([O-])c2CNc2nc3ccc(OC)cc3s2)cc1	100 (≈ 260 µM)
COc1ccc(-[n+]2noc([O-])c2CNc2nc3ccc(C)cc3s2)cc1	100 (≈ 271 µM)
COc1ccc(-[n+]2noc([O-])c2CNc2nc3ccc(C#N)cc3s2)cc1	100 (≈ 264 µM)
COc1ccc(-[n+]2noc([O-])c2CNc2ccc(Cl)cc2)cc1	80 (≈ 241 µM)

System: Escherichia coli
Assay: microbe, parasite or virus in culture
Format: functional
Settings: not given

SMILES	MIC [µg/mL]
COc1ccc(-[n+]2noc([O-])c2CNc2nc3ccc(F)cc3s2)cc1	300 (≈ 806 µM)
COc1ccc(-[n+]2noc([O-])c2Cn2c(-c3ccc(Cl)cc3Cl)nc3ccccc32)cc1	300 (≈ 642 µM)
COc1ccc(NCc2c([O-])on[n+]2-c2ccc(OC)cc2)cc1	200 (≈ 611 µM)
COc1ccc(-[n+]2noc([O-])c2Cn2cnc3ccccc32)cc1	500 (≈ 1550 µM)
COc1ccc(-[n+]2noc([O-])c2Cn2c(-c3ccc(Cl)cc3)nc3ccccc32)cc1	200 (≈ 462 µM)
CCOc1ccc(NCc2c([O-])on[n+]2-c2ccc(OC)cc2)cc1	200 (≈ 586 µM)
COc1ccc(-[n+]2noc([O-])c2CNc2nc3ccc(OC)cc3s2)cc1	200 (≈ 520 µM)
COc1ccc(-[n+]2noc([O-])c2CNc2nc3ccc(C)cc3s2)cc1	300 (≈ 814 µM)
COc1ccc(-[n+]2noc([O-])c2CNc2nc3ccc(C#N)cc3s2)cc1	300 (≈ 791 µM)
COc1ccc(-[n+]2noc([O-])c2CNc2ccc(Cl)cc2)cc1	300 (≈ 904 µM)

System: Staphylococcus aureus
Assay: microbe, parasite or virus in culture
Format: functional
Settings: not given

SMILES	MIC [µg/mL]
COc1ccc(-[n+]2noc([O-])c2CNc2nc3ccc(F)cc3s2)cc1	300 (≈ 806 µM)
COc1ccc(-[n+]2noc([O-])c2Cn2c(-c3ccc(Cl)cc3Cl)nc3ccccc32)cc1	500 (≈ 1070 µM)
COc1ccc(NCc2c([O-])on[n+]2-c2ccc(OC)cc2)cc1	80 (≈ 244 µM)
COc1ccc(-[n+]2noc([O-])c2Cn2cnc3ccccc32)cc1	300 (≈ 931 µM)
COc1ccc(-[n+]2noc([O-])c2Cn2c(-c3ccc(Cl)cc3)nc3ccccc32)cc1	300 (≈ 693 µM)
CCOc1ccc(NCc2c([O-])on[n+]2-c2ccc(OC)cc2)cc1	40 (≈ 117 µM)
COc1ccc(-[n+]2noc([O-])c2CNc2nc3ccc(OC)cc3s2)cc1	100 (≈ 260 µM)
COc1ccc(-[n+]2noc([O-])c2CNc2nc3ccc(C)cc3s2)cc1	200 (≈ 543 µM)
COc1ccc(-[n+]2noc([O-])c2CNc2nc3ccc(C#N)cc3s2)cc1	80 (≈ 211 µM)
COc1ccc(-[n+]2noc([O-])c2CNc2ccc(Cl)cc2)cc1	200 (≈ 603 µM)

System: Pseudomonas aeruginosa
Assay: microbe, parasite or virus in culture
Format: functional
Settings: not given

SMILES	MIC [µg/mL]
COc1ccc(-[n+]2noc([O-])c2CNc2nc3ccc(F)cc3s2)cc1	500 (≈ 1340 µM)
COc1ccc(-[n+]2noc([O-])c2Cn2c(-c3ccc(Cl)cc3Cl)nc3ccccc32)cc1	300 (≈ 642 µM)
COc1ccc(NCc2c([O-])on[n+]2-c2ccc(OC)cc2)cc1	100 (≈ 305 µM)
COc1ccc(-[n+]2noc([O-])c2Cn2cnc3ccccc32)cc1	500 (≈ 1550 µM)
COc1ccc(-[n+]2noc([O-])c2Cn2c(-c3ccc(Cl)cc3)nc3ccccc32)cc1	500 (≈ 1160 µM)
CCOc1ccc(NCc2c([O-])on[n+]2-c2ccc(OC)cc2)cc1	100 (≈ 293 µM)
COc1ccc(-[n+]2noc([O-])c2CNc2nc3ccc(OC)cc3s2)cc1	200 (≈ 520 µM)
COc1ccc(-[n+]2noc([O-])c2CNc2nc3ccc(C)cc3s2)cc1	500 (≈ 1360 µM)
COc1ccc(-[n+]2noc([O-])c2CNc2nc3ccc(C#N)cc3s2)cc1	500 (≈ 1320 µM)
COc1ccc(-[n+]2noc([O-])c2CNc2ccc(Cl)cc2)cc1	300 (≈ 904 µM)

System: Pseudomonas aeruginosa
Assay: microbe, parasite or virus in culture
Format: functional
Settings: read-out: IZ
Description: Antibacterial activity against Pseudomonas aeruginosa at 300 ug/ml

SMILES	zone of inhibition at 300 µg/mL [mm]
COc1ccc(-[n+]2noc([O-])c2CNc2nc3ccc(F)cc3s2)cc1	10
COc1ccc(-[n+]2noc([O-])c2Cn2c(-c3ccc(Cl)cc3Cl)nc3ccccc32)cc1	12
COc1ccc(NCc2c([O-])on[n+]2-c2ccc(OC)cc2)cc1	14
COc1ccc(-[n+]2noc([O-])c2Cn2cnc3ccccc32)cc1	10
COc1ccc(-[n+]2noc([O-])c2Cn2c(-c3ccc(Cl)cc3)nc3ccccc32)cc1	10
CCOc1ccc(NCc2c([O-])on[n+]2-c2ccc(OC)cc2)cc1	15
COc1ccc(-[n+]2noc([O-])c2CNc2nc3ccc(OC)cc3s2)cc1	14
COc1ccc(-[n+]2noc([O-])c2CNc2nc3ccc(C)cc3s2)cc1	10
COc1ccc(-[n+]2noc([O-])c2CNc2nc3ccc(C#N)cc3s2)cc1	10
COc1ccc(-[n+]2noc([O-])c2CNc2ccc(Cl)cc2)cc1	13
